# Laboratory results taken from article PMC7672424 (Nucleic Acids Research, 2020).
# What was measured:
# [1] = test system: FAM-TTA45-TAMRA (DNA, G4) GGGTTAGGGTTAGGGTTAGGGTTAGGGTTAGGGTTAGGGTTAGGG; assay: FRET melting; conditions: 100 mM K+ (KCl) plus 10 mM potassium phosphate, pH 7.0, 0.5 µM DNA
# [2] = test system: TTA45 (DNA, G4) GGGTTAGGGTTAGGGTTAGGGTTAGGGTTAGGGTTAGGGTTAGGG; assay: CD melting; conditions: 50 mM K+; 10 mM Tris-HCl pH 7.4; 5 µM DNA, 20 µM compound
# [3] = test system: TTA; conditions: CD melting; 5 µM DNA, 20 µM compound; 10 mM Tris-HCl, 50 mM KCl, pH 7.4
# Description: CD studies were performed on a Chirascan circular dichroism spectrophotometer (Jasco, Easton, MD, USA). A quartz cuvette with a 1 mm path length was used to record the spectra over a wavelength range of 220–320 nm with a 1 nm bandwidth. All the samples were prepared in buffer containing 10 mM Tris–HCl pH 7.4, 100 mM KCl. To ensure the concentrations of G-quadruplex units to be 20 μM, multiple G-quadruplexes forming oligonucleotides with different concentrations were used (TTA (G1) 20 μM, TTA45 (G2) 10 μM, TTA69 (G3) 6.67 μM, TTA93 (G4) 5 μM, TTA117 (G5) 4 μM, TTA141 (G6) 3.33 μM). The DNA samples were heated at 95°C for 5 min and cooled down slowly to room temperature. […] Melting curves were measured at 295 nm and the range of temperature was 4–95°C.
# a Melting temperature (T ) of 5 µM DNA samples with and without 20 µM BMPQ-1 analogs in 10 mM Tris-HCl
# buffer (50 mM KCl, pH 7.4) was determined by circular dichroism spectroscopy, and ΔTm/°C were derived by
# [4] = test system: TTA (DNA, G4) GGGTTAGGGTTAGGGTTAGGG; assay: CD melting; conditions: 50 mM K+; 10 mM Tris-HCl pH 7.4; 5 µM DNA, 20 µM compound
# [5] = test system: TTA45; assay: CD melting, DNA stabilization; assay type: binding, human; conditions: 5 µM DNA, 20 µM compound, 10 mM Tris-HCl, 50 mM KCl, pH 7.4
# Description: Compounds Structures IC /µM m
# [6] = test system: TTA45; assay: FRET melting assay, stabilization of TTA45; assay type: binding, human; conditions: for ΔTm/°C, TTA45 stabilization by FRET (Table S3) / ΔTm/°C, stabilization of TTA45 by FRET (Table S2): 0.5 µM TTA45, 10 mM K2HPO4/KH2PO4, 100 mM KCl, pH 7.0; for ΔTm/°C, TTA45 stabilization by FRET (Table S3): 20 µM compounds; for stabilization of TTA45 (in words, SAR): FRET assay
# Description: Based on the conventional G-quadruplex ligand design ([46]), ∼400 compounds were selected from Chinese National Compound library of Peking University (PKU-CNCL). These compounds were evaluated for their ability to bind to TTA45 by Fluorescence Resonance Energy Transfer (FRET) assay (Supplementary Tables S1 and S2) ([47]). […] Compounds 21-38 were purchased to study their binding with TTA45 by FRET (Supplementary Table S3). […] page 4: Table S2. Stabilization of TTA45 as determined by FRET assays (continued). Compounds Structures ΔTm/°C Compounds Structures ΔTm/°C 23 10.3 25 14.6 […] OH 24 […] KCl, pH 7.0) was determined by FRET procedure, and Tm/°C were derived by their difference. The concentration of compounds 21-26 were 20 μM , and other compounds were 50 μM. FRET assay was carried out on the Real-Time PCR 3.2 machine (Analytik Jena, Germany). The total reaction volume was 20 μL with 0.5 μM of oligonucleotide labelled with FAM at the 3' end and TAMRA at 5' end in 10 mM K2HPO4/KH2PO4 (pH 7.0) containing 100 mM KCl. […] Then compounds with various concentrations were added into the DNA samples.
# [7] = test system: A549; assay: Cell cytotoxicity assay (CCK8); assay type: cell-based, human; conditions: CCK8, 48 h treatment
# Description: (§1) The cell growth effect of BMPQ-1 against different cell lines were tested via measuring the quantity of living cells using the Cell Counting Kit-8 (CCK8) (DOJINDO, Japan) according to the instruction. Cells were seeded in a 96-well plate (5 × 10^3 cells/well) and grown for 24 h for attachment. Then the cells were treated with various concentrations of BMPQ-1 and incubated at 37°C with 5% CO2 for 48 h. After incubation, the old medium was discarded followed by adding fresh medium containing 10% FBS in DMEM. Then 100 μl CCK-8 (10% in grow medium) was added into each well, and the cells were further incubated for 1 h. The optical density (OD) was detected at 450 nm by an automated microplate reader (Bio-Rad). The IC50 values were derived from the curves of the mean percentage of survival against the drug concentration. All the experiments were performed in triplicate.
# (§2) A Cell Counting Kit-8 (CCK8) (DOJINDO, Japan) was employed to evaluate the cytotoxicity of BMPQ-1 on human alveolar basal epithelial cancer cell line (A549), human hepatocellular carcinoma cancer cell line (HepG2), human gastric cancer cell line (MGC-803), human colon adenocarcinoma (HT29), human normal liver Cells (HL-7702).
# [8] = test system: TTA (DNA, G4) GGGTTAGGGTTAGGGTTAGGG; assay: CD melting; conditions: 50 mM K+ (KCl); 10 mM Tris-HCl pH 7.4; 20 µM compound, 5 µM DNA
# [9] = test system: TTA45 (DNA, G4) GGGTTAGGGTTAGGGTTAGGGTTAGGGTTAGGGTTAGGGTTAGGG; assay: CD melting; conditions: 50 mM K+ (KCl); 10 mM Tris-HCl pH 7.4; 20 µM compound, 5 µM DNA
# [10] = test system: FAM-TTA45-TAMRA (DNA, G4) GGGTTAGGGTTAGGGTTAGGGTTAGGGTTAGGGTTAGGGTTAGGG; assay: FRET melting; conditions: 100 mM K+ (KCl) plus potassium phosphate; 10 mM K2HPO4/KH2PO4 pH 7.0; 0.5 µM DNA, 20 µM compound
# [11] = test system: MGC-803; assay: Cell cytotoxicity assay (CCK8); assay type: cell-based, human; conditions: CCK8, 48 h treatment
# Description: as §1, §2
# [12] = test system: HT29; assay: Cell cytotoxicity assay (CCK8); assay type: cell-based, human; conditions: CCK8, 48 h treatment
# Description: as §1, §2
# [13] = test system: HepG2; assay: Cell cytotoxicity assay (CCK8); assay type: cell-based, human; conditions: CCK8, 48 h treatment
# Description: as §1, §2
smiles,measurement,setting,value
C(=N\Nc1nnc2c(n1)[nH]c1ccccc12)/c1c2ccccc2cc2ccccc12,ΔTm,[1]; 50 µM compound,1.54 °C
CCCNC(=O)Cn1nc(-c2ccc(CC)cc2)c2cnc3cc4c(cc3c21)OCCO4,ΔTm,[1]; 50 µM compound,1.12 °C
CCOc1ccc2c(c1)c1nnc(-c3ccccc3)c-1cn2-c1ccc(Cl)cc1,ΔTm,[1]; 20 µM compound,0.98 ± 0.69 °C
CN(Cc1ccc2c(c1)OCO2)C(=O)c1nn(C)c2c1CN(C(=O)C1=NOC(c3cccs3)C1)CC2 (centres unmarked),ΔTm,[1]; 50 µM compound,0.70 °C
COc1cc2c(-c3ccccc3[N+](=O)[O-])nc3c(c(-c4ccccc4)nn3-c3ccccc3)c2cc1OC,ΔTm,[1]; 50 µM compound,3.85 °C
COc1ccc2c(c1)c1nnc(-c3ccc(F)cc3)c-1cn2Cc1ccccc1,ΔTm,[1]; 20 µM compound,8.38 ± 1.73 °C
Cc1cc(C)n(-c2nnc3c4ccccc4n(CC(=O)NCCc4nc5ccccc5[nH]4)c3n2)n1,ΔTm,[1]; 50 µM compound,2.17 °C
Cc1ccc2c(c1)c1nnc(-c3ccc(F)cc3)c-1cn2Cc1ccccc1,ΔTm,[1]; 20 µM compound,6.43 ± 0.70 °C
Clc1ccc(-n2cc3c(-c4ccccc4)nnc-3c3ccccc32)cc1,ΔTm,[1]; 20 µM compound,2.54 ± 0.16 °C
Oc1ccccc1/C=N/Nc1nnc2c3ccccc3n(Cc3ccccc3)c2n1,ΔTm,[1]; 50 µM compound,1.53 °C
c1cc2c(cc1Cn1cc3c(-c4ccc5c(c4)OCO5)nnc-3c3cc4c(cc31)OCO4)OCO2,ΔTm,[1]; 20 µM compound,11.56 ± 0.36 °C
FC(F)(F)c1ccc(Cn2cc3c(-c4ccc5c(c4)OCO5)nnc-3c3cc4c(cc32)OCO4)cc1 [BMPQ-2],ΔTm,[2],7.0 °C
same,ΔTm,[1]; 20 µM compound,12.59 ± 0.54 °C
same,ΔTm (°C) TTA,[3],2.3 °C
same,ΔTm,[4],2.3 °C
same,ΔTm (°C) TTA45,[5],7.0 °C
same,"ΔTm/°C, TTA45 stabilization by FRET (Table S3)",[6],12.59 ± 0.54 °C
same,"ΔTm/°C, stabilization of TTA45 by FRET (Table S2)",[6]; compounds 21-26 20 µM,12.6 °C
same,IC50,[7],1.99 ± 0.04 µM
Cc1ccc(Cn2cc3c(-c4ccc5c(c4)OCO5)nnc-3c3ccccc32)cc1 [BMPQ-3],ΔTm,[8],1.1 °C
same,ΔTm,[1]; 20 µM compound,10.28 ± 0.15 °C
same,ΔTm (°C) TTA,[3],1.1 °C
same,ΔTm (°C) TTA45,[5],5.1 °C
same,ΔTm,[9],5.1 °C
same,"ΔTm/°C, TTA45 stabilization by FRET (Table S3)",[6],10.28 ± 0.15 °C
same,"ΔTm/°C, stabilization of TTA45 by FRET (Table S2)",[6]; compounds 21-26 20 µM,10.3 °C
same,IC50,[7],> 32 µM
OCCn1cc2c(-c3ccc4c(c3)OCO4)nnc-2c2cc3c(cc21)OCO3 [BMPQ-4],ΔTm,[8],2.3 °C
same,ΔTm,[1]; 20 µM compound,7.92 ± 0.12 °C
same,ΔTm (°C) TTA,[3],2.3 °C
same,ΔTm (°C) TTA45,[5],4.9 °C
same,ΔTm,[9],4.9 °C
same,"ΔTm/°C, TTA45 stabilization by FRET (Table S3)",[6],7.92 ± 0.12 °C
same,"ΔTm/°C, stabilization of TTA45 by FRET (Table S2)",[6]; compounds 21-26 20 µM,7.9 °C
same,IC50,[7],> 32 µM
COc1ccc(-c2nnc3c4cc5c(cc4n(Cc4ccccc4)cc2-3)OCCO5)cc1OC [BMPQ-5],ΔTm,[8],4.3 °C
same,ΔTm,[10],14.62 ± 0.46 °C
same,ΔTm (°C) TTA,[3],4.3 °C
same,ΔTm (°C) TTA45,[5],4.6 °C
same,ΔTm,[9],4.6 °C
same,"ΔTm/°C, TTA45 stabilization by FRET (Table S3)",[6],14.62 ± 0.46 °C
same,"ΔTm/°C, stabilization of TTA45 by FRET (Table S2)",[6]; compounds 21-26 20 µM,14.6 °C
same,IC50,[7],5.39 ± 0.46 µM
COc1ccc(-c2nnc3c4cc5c(cc4n(Cc4ccccc4)cc2-3)OCO5)cc1 [BMPQ-6],ΔTm,[2],3.5 °C
same,ΔTm,[1]; 20 µM compound,11.68 ± 0.53 °C
same,ΔTm (°C) TTA,[3],1.0 °C
same,ΔTm,[4],1.0 °C
same,ΔTm (°C) TTA45,[5],3.5 °C
same,"ΔTm/°C, TTA45 stabilization by FRET (Table S3)",[6],11.68 ± 0.53 °C
same,"ΔTm/°C, stabilization of TTA45 by FRET (Table S2)",[6]; compounds 21-26 20 µM,11.7 °C
same,IC50,[7],2.49 ± 0.03 µM
"CN(C)c1ccc(Nc2c3ccc(NC(=O)CCN4CCCC4)cc3nc3cc(NC(=O)CCN4CCCC4)ccc23)cc1 [BRACO-19, reference compound]",IC50,[11],7.07 ± 0.89 µM
same,IC50,[7],6.71 ± 0.45 µM
same,IC50,[12],14.2 ± 1.78 µM
same,IC50,[13],6.25 ± 0.8 µM
CN1CCN(CCCSc2nnc3c(n2)[nH]c2ccccc23)CC1 [Compound 3],ΔTm,[1]; 50 µM compound,9.04 °C
same,"ΔTm/°C, stabilization of TTA45 by FRET (Table S2)",[6]; compounds 50 µM,9.04 °C
Oc1ccccc1C=NNc1nnc2c3ccccc3n(Cc3ccccc3)c2n1 [Compound 5],"ΔTm/°C, stabilization of TTA45 by FRET (Table S2)",[6]; compounds 50 µM,1.53 °C
CCC(Sc1nc2cc3c(cc2c(=O)n1Cc1ccc(C(=O)NCc2ccc4c(c2)OCO4)cc1)OCO3)C(=O)N1CCOCC1 (centres unmarked) [Compound 12],ΔTm,[1]; 50 µM compound,5.11 °C
same,"ΔTm/°C, stabilization of TTA45 by FRET (Table S2)",[6]; compounds 50 µM,5.11 °C
Cc1ccc(Cn2cc(C(=O)c3ccc4c(c3)OCO4)c(=O)c3cc4c(cc32)OCO4)cc1 [Compound 15],"ΔTm/°C, stabilization of TTA45 by FRET (Table S2)",[6]; compounds 50 µM,0.70 °C
Cc1ccc(-c2nnc3c4cc5c(cc4n(Cc4ccccc4)cc2-3)OCO5)cc1C [Compound 27],ΔTm,[1]; 20 µM compound,14.08 ± 2.11 °C
same,"ΔTm/°C, TTA45 stabilization by FRET (Table S3)",[6],14.08 ± 2.11 °C
COc1cccc(Cn2cc3c(-c4ccc5c(c4)OCO5)nnc-3c3cc4c(cc32)OCO4)c1 [Compound 30],ΔTm,[1]; 20 µM compound,13.40 ± 1.12 °C
same,"ΔTm/°C, TTA45 stabilization by FRET (Table S3)",[6],13.40 ± 1.12 °C
COc1ccc(Cn2cc3c(-c4ccc5c(c4)OCO5)nnc-3c3cc4c(cc32)OCO4)cc1OC [Compound 31],ΔTm,[1]; 20 µM compound,15.15 ± 0.23 °C
same,"ΔTm/°C, TTA45 stabilization by FRET (Table S3)",[6],15.15 ± 0.23 °C
Fc1ccc(-c2nnc3c4cc5c(cc4n(Cc4ccccc4F)cc2-3)OCCO5)cc1 [Compound 33],ΔTm,[1]; 20 µM compound,10.42 ± 1.60 °C
same,"ΔTm/°C, TTA45 stabilization by FRET (Table S3)",[6],10.42 ± 1.60 °C
CCOc1ccc(-c2nnc3c4cc5c(cc4[nH]cc2-3)OCCO5)cc1 [Compound 34],"ΔTm/°C, TTA45 stabilization by FRET (Table S3)",[6],3.55 ± 1.20 °C
COc1ccc(-c2nn(-c3ccc(F)cc3)c3c2cnc2cc4c(cc23)OCO4)cc1 [Compound 37],"ΔTm/°C, TTA45 stabilization by FRET (Table S3)",[6],2.19 ± 0.91 °C
same,"stabilization of TTA45 (in words, SAR)",[6],negligible stabilization
Fc1ccc(-n2nc(-c3ccccc3)c3cnc4cc5c(cc4c32)OCO5)cc1 [Compound 38],"ΔTm/°C, TTA45 stabilization by FRET (Table S3)",[6],0.30 ± 0.82 °C
same,"stabilization of TTA45 (in words, SAR)",[6],negligible stabilization
